No end group written: not given here.

Test [1] has as its target T1, channels formed by the 42-residue AbP1-42 (Homo sapiens, UniProt P05067).
T1 construct: the channels formed by the 42-residue AbP1-42
Put plainly: Liposomes reconstituted with AbP1-42 channels, channel block. The test is classed as biochemical. An excerpt:
(§1) In certain embodiments binding of test agents can be detected by detecting alterations (e.g., decrease) of ion (e.g., Ca^2+) uptake by a cell, oocytes, or liposome in the presence of the test agent(s)-uptake in to the liposomes. This can readily be detected using for example a radio-isotope (e.g., 45Ca^2+) or a calcium sensitive dye (e.g., arsenazo III (AIII), Fura-2, Fluo-3, Fluo-4, Calcium green, etc.).
(§2) Using liposomes reconstituted with AbP channels in the membrane, one can screen for compounds that block AbP channels.

Test [2] has as its system AbP ion channels. The experiment in a line: Ca2+ influx through AbP ion channels incorporated into unilaminar liposomes. The test is classed as biochemical, human. An excerpt:
Consistent with these discoveries, we have shown that AbP ion channels mediate Ca^2+ influx when incorporated into unilaminar liposomes, and the Ca^2+ influx was blocked by Zn^2+ and an anti-AbP antibody.

Test [3] deals with AbP ion channels. The experiment in a line: AbP-induced toxicity in cultured cells. The class given is cell-based. As to conditions: blocking Ca2+ influx through AbP ion channels.
Test [4] deals with T2, channels formed by the 40 residue AbP1-40 (Homo sapiens, UniProt P05067).
T2 construct: the channels formed by the 40 residue AbP1-40
Put plainly: 45Ca2+ uptake into liposomes reconstituted with AbP1-40 channels. The class given is biochemical.
Text: as §1, §2

A short description of test [5]: IV curve conductance across lipid bilayer suspended over silicon chip nanopore. As to conditions: 0.2 mg/ml, 135 mM KCl, bilayer only 0.025 nS. The method, then: In order to study the sealing effect of the bilayer over the nanopores in the chip, lipid vesicles were deposited over to chips. After 30 minutes for a bilayer to form from vesicular fusion, the excess unadsorbed lipids and vesicles were rinsed away from the surface. Bulk electrical conductance across the supported nanopore chip and the overlying adsorbed lipid bilayer was measured using a drop of 135 mM KCl solution on top of the chip in which the AFM tip holder assembly was submerged and 135 mM KCl under the nitride membrane. The IV curve measured was near flat and indicates a conductance across the bilayer of 0.025 nS. To check for the possibility of using the nanopore chip to measure ion channel conductance, Gramicidin (a known ion channel forming peptide) was added to the solution at a concentration of 0.2 mg/ml. The effect of Gramicidin on conductance is shown in FIG. 18, while applying a 1V bias to the bottom electrode under the silicon nitride membrane.
For all samples, nano pore membranes were mounted on plastic liquid cells to exchange fluid above or below the membrane. IV curves were obtained in 135 mM KCl solution. Current was measured using the conductive AFM setup with the cantilevered tip holder as an electrode on the top and a reference electrode under the pore-chip (FIG. 20). In absence of an insulating coat, when buffer was present on both sides of the chip, current is measured through the complete tip holder clip. To image current only through the AFM tip apex, conductance was measured with 135 mM KCl solution only under the pore chip and a flow of humid air was maintained over the top surface. This set up also ensured that, by allowing only a local water meniscus between tip and the sample, only the local conductance through each pore was measured.
AFM was also used to image pores after deposition of lipid vesicles (DOPC) prepared by previously described method (Lin et al. (1999) Biochemistry, 38: 11189-11196). Briefly, vesicles were formed by drying 1 mg of DOPC lipid in a glass tube, kept in a desiccator overnight, and rehydrated in buffer with occasional sonication. For vesicle deposition a droplet (50 micro liter, 1 mg/ml) of vesicles was placed on the pore chip, allowed to adsorb for 30 minutes, and rinsed with buffer. After bilayer deposition and before IV measurements, ionic strength was brought back to 135 mM KCl both on top as well as below the pore chip to keep the bilayer hydrated properly, and current was measured through the tip holder. Once a proper seal was achieved by the bilayer, Gramicidin, an ion channel forming peptide (dissolved in milliQ water with 135 mM KCl), was added to the buffer solution, and the current was measured as a function of time while gramicidin interacted with the bilayer.

A short description of test [6]: Single-channel current recording in planar phospholipid bilayer membranes. As to conditions: voltage clamp, peptide added to one side, pH 7.4. Here is the method:
Planar phospholipid bilayer membranes were formed as described by Mirzabekov et al. (1999) Meth. Enzymol. 294: 61-74. A bubble of lipid dissolved in heptane was placed at the end of a small (100-300 μm) Teflon tube. Silver/silver chloride electrodes connected the aqueous components bounding the membrane to a voltage clamp. Ion-channel currents through the membrane were recorded by an Axopatch amplifier (Axon Instruments, Sunnyvale, Calif.). Data were filtered at 1 kHz and stored on VHS tape. Membrane capacitance and resistance were monitored continuously to ensure the formation and stability of reproducible membranes and the proper membrane thickness. […] Peptide samples were introduced by perfusing the aqueous solution bounding one side of the membrane.

T1 sequence (P05067 672-713 limits assumed): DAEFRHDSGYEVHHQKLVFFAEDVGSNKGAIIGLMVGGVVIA
T2 sequence (P05067 672-711 limits assumed): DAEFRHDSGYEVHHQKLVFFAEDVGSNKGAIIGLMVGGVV

In the case of `NC(CO)(CO)CO` [Tris], the “block of AbP1-42 channels” value in test [1] is on record as “blocked”.
On to `[Zn+2]` [Zn^2+], for which the “block of AbP1-42 channels” value in test [1] is given as “blocked”. In addition, the “block of Ca2+ influx mediated by AbP ion channels” value in test [2] was “blocked”. For the same molecule, in test [3], the “effect on AbP-induced toxicity” value was “inhibited AbP-induced toxicity”. The “block of AbP1-40 channels and inhibition of 45Ca2+ uptake into the liposomes” value in test [4] is listed as “blocks the channels”.
Turning to Gramicidin, the “conductance after addition of Gramicidin” value in test [5] (10 seconds after addition) was 0.25 nS; in test [5] (2 minutes after addition), 0.5 nS; in test [5] (4 minutes after addition), 1 nS; in test [5] (4 minutes after addition, listed as gramicidin), “roughly 1 nS”.
On to NAC: NAC (α-synuclein 60-95), for which the “induction of single-channel ion currents / conductances” value in test [6] is “Current jumps corresponding to the opening or closing of individual ion channels can be observed”.
Turning to amyloid-β(1-40) [Aβ(1-40)], the “induction of single-channel ion currents / conductances” value in test [6] was “Current jumps corresponding to the opening or closing of individual ion channels can be observed”.
In the case of “islet amyloid polypeptide (KCNTATCATQRLANFLVHSSNNFGAILSSTNVGSNTY; not fully specified (C-terminus, bridges); cysteine pairing not given here; UniProt P10997 34-70, looked up) [Amylin, amyloid peptide synthesized by N-t-butyloxycarbonyl chemistry]”, the “induction of single-channel ion currents / conductances” value in test [6] was “Current jumps corresponding to the opening or closing of individual ion channels can be observed”.

For the origin of these results see US20070238184A1, “Amyloid beta protein channel structure and uses thereof in identifying potential drug molecules for neurodegenerative diseases” (The Regents of the University of California, priority 2005, published 2007).
